In ChEMBL document CHEMBL1909046, “DrugMatrix in vitro pharmacology data”:

Experiments:
[1] = target: T1, Alpha-1A adrenergic receptor (Rattus norvegicus, UniProt P43140); test: DRUGMATRIX: Alpha-1A adrenergic receptor radioligand binding (ligand: prazosin); assay type: cell membranes, Wistar, Submaxillary gland, Membrane; conditions: Not Active = under 50% inhibition at 10 µM
T1 sequence (P43140 whole entry): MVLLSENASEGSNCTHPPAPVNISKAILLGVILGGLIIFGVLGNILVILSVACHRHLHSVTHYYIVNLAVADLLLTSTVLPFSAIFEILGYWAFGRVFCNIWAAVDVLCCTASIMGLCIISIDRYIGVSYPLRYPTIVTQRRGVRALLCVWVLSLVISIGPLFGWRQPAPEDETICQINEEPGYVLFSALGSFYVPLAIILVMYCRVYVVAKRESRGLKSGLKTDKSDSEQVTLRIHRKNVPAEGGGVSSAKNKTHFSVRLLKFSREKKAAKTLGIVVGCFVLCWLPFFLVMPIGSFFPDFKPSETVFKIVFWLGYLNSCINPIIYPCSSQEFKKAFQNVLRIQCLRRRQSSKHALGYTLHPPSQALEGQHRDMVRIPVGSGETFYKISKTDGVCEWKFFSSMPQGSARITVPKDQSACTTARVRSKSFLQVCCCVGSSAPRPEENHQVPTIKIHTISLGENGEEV

Interstitial collagenase = target: T2, Interstitial collagenase (Homo sapiens, UniProt P03956); test: biochemical; assay type: tissue-based, Rheumatoid synovial fibroblasts;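 note: MMP-1 enzyme inhibition assay using a peptide substrate; in other assays of this panel Not Active means under 50% inhibition at 10 µM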
T2 sequence (P03956 whole entry): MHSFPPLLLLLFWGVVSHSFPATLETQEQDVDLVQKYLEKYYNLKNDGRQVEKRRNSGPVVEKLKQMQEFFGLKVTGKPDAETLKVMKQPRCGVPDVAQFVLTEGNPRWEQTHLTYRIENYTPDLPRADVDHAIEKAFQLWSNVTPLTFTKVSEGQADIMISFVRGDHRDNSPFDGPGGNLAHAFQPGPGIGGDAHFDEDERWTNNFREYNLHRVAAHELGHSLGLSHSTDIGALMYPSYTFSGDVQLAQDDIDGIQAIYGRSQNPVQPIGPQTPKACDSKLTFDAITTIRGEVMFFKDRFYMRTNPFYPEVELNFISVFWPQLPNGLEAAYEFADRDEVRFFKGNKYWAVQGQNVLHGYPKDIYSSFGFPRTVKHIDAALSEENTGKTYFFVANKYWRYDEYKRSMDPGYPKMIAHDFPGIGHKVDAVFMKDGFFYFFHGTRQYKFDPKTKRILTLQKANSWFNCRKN

[2] = target: T3, C-X-C chemokine receptor type 2 (Homo sapiens, UniProt P25025); assay type: cell membranes, Membrane; conditions: cho-k1; note: in other assays of this panel Not Active means under 50% inhibition at 10 µM
T3 sequence (P25025 whole entry): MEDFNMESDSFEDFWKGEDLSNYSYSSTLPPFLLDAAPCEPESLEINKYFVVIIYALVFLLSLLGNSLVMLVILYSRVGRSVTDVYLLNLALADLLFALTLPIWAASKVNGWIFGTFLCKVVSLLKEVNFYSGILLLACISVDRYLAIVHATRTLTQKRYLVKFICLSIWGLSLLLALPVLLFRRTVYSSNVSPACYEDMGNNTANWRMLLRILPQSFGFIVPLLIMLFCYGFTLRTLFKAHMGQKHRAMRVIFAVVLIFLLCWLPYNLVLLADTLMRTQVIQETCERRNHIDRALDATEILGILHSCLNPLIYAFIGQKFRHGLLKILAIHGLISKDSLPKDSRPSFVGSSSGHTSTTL

[3] = DRUGMATRIX: Purinergic P2X radioligand binding (ligand: [3H] alpha, beta-Methylene-ATP); assay type: cell membranes, Oryctolagus cuniculus, New Zealand albino, Urinary bladder, Membrane; conditions: Not Active = under 50% inhibition at 10 µM
[4] = target: T4, Neuropeptide Y receptor type 2 (Homo sapiens, UniProt P49146); assay type: cell membranes, Membrane; conditions: kan-ts; note: in other assays of this panel Not Active means under 50% inhibition at 10 µM
T4 sequence (P49146 whole entry): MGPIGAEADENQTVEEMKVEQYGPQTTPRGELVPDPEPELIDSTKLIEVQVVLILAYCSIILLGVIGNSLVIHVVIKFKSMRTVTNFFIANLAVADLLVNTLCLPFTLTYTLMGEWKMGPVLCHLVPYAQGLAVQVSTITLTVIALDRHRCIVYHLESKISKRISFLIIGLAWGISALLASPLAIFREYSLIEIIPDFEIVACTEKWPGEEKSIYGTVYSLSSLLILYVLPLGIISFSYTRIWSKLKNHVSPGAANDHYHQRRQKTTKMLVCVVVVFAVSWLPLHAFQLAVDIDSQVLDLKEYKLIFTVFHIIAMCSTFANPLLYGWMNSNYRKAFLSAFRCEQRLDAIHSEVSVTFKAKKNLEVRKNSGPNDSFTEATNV

[5] = DRUGMATRIX: GABAA, Flunitrazepam, Central radioligand binding (ligand: [3H] Flunitrazepam); assay type: cell membranes, Rattus norvegicus, Wistar, Brain, Membrane; conditions: Not Active = under 50% inhibition at 10 µM
[6] = target: Protein kinase C alpha type (Homo sapiens, UniProt P17252); assay type: cell-based; conditions: sf9;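 note: inhibition of PKCalpha kinase activity measured in an enzyme assay with histone as the phosphorylation substrate; in other assays of this panel Not Active means under 50% inhibition at 10 µM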
[7] = target: T5, 5-hydroxytryptamine receptor 2C (Homo sapiens, UniProt P28335); test: DRUGMATRIX: Serotonin (5-Hydroxytryptamine) 5-HT2C radioligand binding (ligand: [3H] Mesulergine); assay type: cell membranes, CHO-K1, Membrane; conditions: cho-k1; Not Active = under 50% inhibition at 10 µM
T5 sequence (P28335 whole entry): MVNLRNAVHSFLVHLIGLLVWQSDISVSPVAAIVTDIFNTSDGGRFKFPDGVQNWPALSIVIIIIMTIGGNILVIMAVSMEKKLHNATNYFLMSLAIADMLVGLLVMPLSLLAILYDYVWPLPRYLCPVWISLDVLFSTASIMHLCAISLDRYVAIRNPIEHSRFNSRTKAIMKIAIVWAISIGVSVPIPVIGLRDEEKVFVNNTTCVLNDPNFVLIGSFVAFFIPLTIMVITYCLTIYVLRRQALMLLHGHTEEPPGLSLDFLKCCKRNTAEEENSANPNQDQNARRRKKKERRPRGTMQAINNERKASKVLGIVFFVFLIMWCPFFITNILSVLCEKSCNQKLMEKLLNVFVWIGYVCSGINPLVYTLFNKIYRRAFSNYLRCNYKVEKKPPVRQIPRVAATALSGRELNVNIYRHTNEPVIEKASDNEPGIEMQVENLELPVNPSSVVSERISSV

[8] = target: Protein phosphatase 3 catalytic subunit alpha (Homo sapiens, UniProt Q08209); design: species or system Escherichia coli
[9] = target: Prostaglandin G/H synthase 1 (Homo sapiens, UniProt P23219); test: biochemical; assay type: tissue-based, Platelet; conditions: platelet
Chain of Prostaglandin G/H synthase 1 (P23219 whole entry): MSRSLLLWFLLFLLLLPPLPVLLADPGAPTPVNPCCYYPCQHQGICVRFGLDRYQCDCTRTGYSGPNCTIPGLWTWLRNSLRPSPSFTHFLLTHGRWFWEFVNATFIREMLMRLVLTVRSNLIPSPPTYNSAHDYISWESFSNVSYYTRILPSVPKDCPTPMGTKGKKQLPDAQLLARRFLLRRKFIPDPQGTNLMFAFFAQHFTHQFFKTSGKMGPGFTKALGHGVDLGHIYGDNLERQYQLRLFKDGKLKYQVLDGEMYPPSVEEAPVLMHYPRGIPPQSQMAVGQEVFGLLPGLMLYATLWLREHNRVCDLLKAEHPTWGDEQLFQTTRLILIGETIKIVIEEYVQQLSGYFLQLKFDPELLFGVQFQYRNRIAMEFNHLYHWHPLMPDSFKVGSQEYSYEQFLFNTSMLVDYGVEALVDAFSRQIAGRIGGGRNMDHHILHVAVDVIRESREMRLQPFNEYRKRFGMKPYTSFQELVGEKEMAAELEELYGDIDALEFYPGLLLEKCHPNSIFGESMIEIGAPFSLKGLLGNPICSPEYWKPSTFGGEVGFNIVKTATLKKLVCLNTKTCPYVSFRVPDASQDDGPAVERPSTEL

C[C@@H](N)[C@H]1CC[C@H](C(=O)Nc2ccncc2)CC1 [Y-27632]
Not Active: IC50 [1] | IC50 (Interstitial collagenase) | IC50 [2] | IC50 [3] | Ki [3] | IC50 [4] | IC50 [5] | Ki [5] | IC50 [6] | IC50 [7] | IC50 [8] | IC50 [9]
